According to PubChem BioAssay AID1963874 (Molecular Pharmacology Branch, DTP, NCI, 2024):

System: 253994-281-T-J1-PDC KRAS-mutant spheroids with HUVEC/MSC, viability
Test: Anticancer human tumor 253994-281-T-J1-PDC patient-derived colorectal carcinoma cell line growth inhibition [KRAS2]
Conditions: for viability, T/C: stronger effect = lower value; active = viability on the fitted dose curve at most 10% of control; inactive = the rest
Method in brief: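 KRAS-mutant tumor cells were grown as spheroids with HUVEC endothelial cells and human MSCs as stroma. Targeted agents were tested alone and with KRAS pathway inhibitors. Doses started at or near clinical Cmax, or 10 microM, descending half-log.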

[1] = curve of first compound, second compound 0.1 µM
[2] = curve of first compound, second compound 0.316 µM
[3] = curve of first compound, second compound 1 µM
[4] = curve of first compound, second compound 3.16 µM
[5] = curve of first compound, second compound 10 µM
[6] = second compound 0.1 µM, first compound 0.000316 µM
[7] = second compound 0.1 µM, first compound 0.001 µM
[8] = second compound 0.1 µM, first compound 0.00316 µM
[9] = second compound 0.1 µM, first compound 0.01 µM
[10] = second compound 0.1 µM, first compound 0.0316 µM
[11] = second compound 0.1 µM, first compound 0.1 µM
[12] = second compound 0.316 µM, first compound 0.000316 µM
[13] = second compound 0.316 µM, first compound 0.001 µM
[14] = second compound 0.316 µM, first compound 0.00316 µM
[15] = second compound 0.316 µM, first compound 0.01 µM
[16] = second compound 0.316 µM, first compound 0.0316 µM
[17] = second compound 0.316 µM, first compound 0.1 µM
[18] = second compound 1 µM, first compound 0.000316 µM
[19] = second compound 1 µM, first compound 0.001 µM
[20] = second compound 1 µM, first compound 0.00316 µM
[21] = second compound 1 µM, first compound 0.01 µM
[22] = second compound 1 µM, first compound 0.0316 µM
[23] = second compound 1 µM, first compound 0.1 µM
[24] = second compound 3.16 µM, first compound 0.000316 µM
[25] = second compound 3.16 µM, first compound 0.001 µM
[26] = second compound 3.16 µM, first compound 0.00316 µM
[27] = second compound 3.16 µM, first compound 0.01 µM
[28] = second compound 3.16 µM, first compound 0.0316 µM
[29] = second compound 3.16 µM, first compound 0.1 µM
[30] = second compound 10 µM, first compound 0.000316 µM
[31] = second compound 10 µM, first compound 0.001 µM
[32] = second compound 10 µM, first compound 0.00316 µM
[33] = second compound 10 µM, first compound 0.01 µM
[34] = second compound 10 µM, first compound 0.0316 µM
[35] = second compound 10 µM, first compound 0.1 µM
[36] = second compound 0.1 µM, first compound 0.316 µM
[37] = second compound 0.1 µM, first compound 1 µM
[38] = second compound 0.1 µM, first compound 3.16 µM
[39] = second compound 0.1 µM, first compound 10 µM
[40] = second compound 0.316 µM, first compound 0.316 µM
[41] = second compound 0.316 µM, first compound 1 µM
[42] = second compound 0.316 µM, first compound 3.16 µM
[43] = second compound 0.316 µM, first compound 10 µM
[44] = second compound 1 µM, first compound 0.316 µM
[45] = second compound 1 µM, first compound 1 µM
[46] = second compound 1 µM, first compound 3.16 µM
[47] = second compound 1 µM, first compound 10 µM
[48] = second compound 3.16 µM, first compound 0.316 µM
[49] = second compound 3.16 µM, first compound 1 µM
[50] = second compound 3.16 µM, first compound 3.16 µM
[51] = second compound 3.16 µM, first compound 10 µM
[52] = second compound 10 µM, first compound 0.316 µM
[53] = second compound 10 µM, first compound 1 µM
[54] = second compound 10 µM, first compound 3.16 µM
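Also: spheroids exposed to agents for seven days before readout.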
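For viability, T/C in this document: percent of DMSO vehicle control viability.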

Cn1ncnc1[C@H]1c2n[nH]c(=O)c3cc(F)cc(c23)N[C@@H]1c1ccc(F)cc1 + COc1cc2nc(C)nc(NC(C)c3cc(N)cc(C(F)(F)F)c3)c2cc1OC1CCOC1
> 100 nM: IC50 [1] | IC50 [2] | IC50 [3] | IC50 [4] | IC50 [5]
inactive: viability, T/C [6] 92.5% | viability, T/C [7] 95.7% | viability, T/C [8] 79% | viability, T/C [9] 90.8% | viability, T/C [10] 92.5% | viability, T/C [11] 78.8% | viability, T/C [12] 80% | viability, T/C [13] 84.5% | viability, T/C [14] 86.1% | viability, T/C [15] 80.4% | viability, T/C [16] 91.9% | viability, T/C [17] 78.1% | viability, T/C [18] 88.5% | viability, T/C [19] 92.2% | viability, T/C [20] 86.6% | viability, T/C [21] 89.1% | viability, T/C [22] 87.1% | viability, T/C [23] 85.3% | viability, T/C [24] 87.5% | viability, T/C [25] 86.5% | viability, T/C [26] 91.7% | viability, T/C [27] 89.7% | viability, T/C [28] 77.2% | viability, T/C [29] 85.5% | viability, T/C [30] 80.9% | viability, T/C [31] 84.7% | viability, T/C [32] 72.6% | viability, T/C [33] 77.7% | viability, T/C [34] 83.7% | viability, T/C [35] 68.3%

CC1OCC2(CCN(c3cnc(Sc4ccnc(N)c4Cl)c(N)n3)CC2)C1N (centres undefined) + C=CC(=O)N1CCN(c2nc(OCC3CCCN3C)nc3c2CCN(c2cccc4cccc(C)c24)C3)CC1CC#N
82.4 nM: IC50 [4]
inactive: viability, T/C (second compound 0.0316 µM, first compound 0.0316 µM) 112% | viability, T/C (second compound 0.0316 µM, first compound 0.1 µM) 91.7% | viability, T/C (second compound 0.0316 µM, first compound 0.316 µM) 87.5% | viability, T/C (second compound 0.0316 µM, first compound 1 µM) 81.4% | viability, T/C (second compound 0.0316 µM, first compound 3.16 µM) 65.4% | viability, T/C (second compound 0.0316 µM, first compound 10 µM) 45.3% | viability, T/C [10] 87.4% | viability, T/C [11] 100% | viability, T/C [36] 76.3% | viability, T/C [37] 78.5% | viability, T/C [38] 66.1% | viability, T/C [39] 50.4% | viability, T/C [16] 92.3% | viability, T/C [17] 100% | viability, T/C [40] 84.3% | viability, T/C [41] 72.6% | viability, T/C [42] 60.9% | viability, T/C [43] 44.9% | viability, T/C [22] 79.3% | viability, T/C [23] 82.3% | viability, T/C [44] 76.7% | viability, T/C [45] 67.4% | viability, T/C [46] 56.5% | viability, T/C [47] 41.4% | viability, T/C [28] 57.2% | viability, T/C [29] 48.5% | viability, T/C [48] 39.8% | viability, T/C [49] 27% | viability, T/C [50] 20.6% | viability, T/C [51] 9.67%
> 10000 nM: IC50 [1]
8570 nM: IC50 (curve of first compound, second compound 0.0316 µM)
5050 nM: IC50 [3]
6830 nM: IC50 [2]

CC(=O)OC12COC1CC(O)C1(C)C(=O)C(O)C3=C(C)C(OC(=O)C(O)C(NC(=O)OC(C)(C)C)c4ccccc4)CC(O)(C(OC(=O)c4ccccc4)C21)C3(C)C (centres undefined) + COc1cc2nc(C)nc(NC(C)c3cc(N)cc(C(F)(F)F)c3)c2cc1OC1CCOC1
inactive: viability, T/C [9] 61.3% | viability, T/C [10] 35.7% | viability, T/C [11] 26.1% | viability, T/C [36] 20.6% | viability, T/C [37] 22.6% | viability, T/C [38] 19.6% | viability, T/C [15] 46.2% | viability, T/C [16] 26.9% | viability, T/C [17] 21.4% | viability, T/C [40] 19.7% | viability, T/C [41] 18.8% | viability, T/C [42] 19.1% | viability, T/C [21] 35.9% | viability, T/C [22] 41.4% | viability, T/C [23] 21.6% | viability, T/C [44] 19.9% | viability, T/C [45] 19.7% | viability, T/C [46] 22.8% | viability, T/C [27] 25.8% | viability, T/C [28] 21.6% | viability, T/C [29] 17.4% | viability, T/C [48] 18% | viability, T/C [49] 20.1% | viability, T/C [50] 20.6% | viability, T/C [33] 20.1% | viability, T/C [34] 22.4% | viability, T/C [35] 19.2% | viability, T/C [52] 23.3% | viability, T/C [53] 20.2% | viability, T/C [54] 25.4%
< 10 nM: IC50 [2] | IC50 [3] | IC50 [4] | IC50 [5]
16.7 nM: IC50 [1]

CC1COCCN1c1cc(-c2ccnn2C)c2ccnc(-c3ccn[nH]3)c2n1 (centres undefined)
inactive: viability, T/C (compound 0.01 µM) 97.3% [middle of 5 runs] | viability, T/C (compound 0.0316 µM) 88.2% [middle of 5 runs] | viability, T/C (compound 0.1 µM) 74.6% [middle of 5 runs] | viability, T/C (compound 0.316 µM) 61.8% [middle of 5 runs] | viability, T/C (compound 1 µM) 56.9% [middle of 5 runs] | viability, T/C (compound 3.16 µM) 59.6% [middle of 5 runs]
> 3160 nM: IC50 (curve of compound)

CCNC(=O)CC1N=C(c2ccc(Cl)cc2)c2cc(OC)ccc2-n2c(C)nnc21 (centres undefined) + CC1OCC2(CCN(c3cnc(Sc4ccnc(N)c4Cl)c(N)n3)CC2)C1N
648 nM: IC50 [4]
63.7 nM: IC50 [5]
> 10000 nM: IC50 [1] | IC50 [2]
inactive: viability, T/C [10] 90.4% | viability, T/C [11] 100% | viability, T/C [36] 86.5% | viability, T/C [37] 82% | viability, T/C [38] 74.2% | viability, T/C [39] 67% | viability, T/C [16] 85.2% | viability, T/C [17] 81.3% | viability, T/C [40] 75.5% | viability, T/C [41] 65% | viability, T/C [42] 74% | viability, T/C [43] 65% | viability, T/C [22] 80% | viability, T/C [23] 79.9% | viability, T/C [44] 79% | viability, T/C [45] 64.1% | viability, T/C [46] 54.6% | viability, T/C [47] 35.1% | viability, T/C [28] 61.5% | viability, T/C [29] 78% | viability, T/C [48] 61.5% | viability, T/C [49] 40.9% | viability, T/C [50] 34.9% | viability, T/C [51] 23.1% | viability, T/C [34] 52.8% | viability, T/C [35] 47.6% | viability, T/C [52] 43.5% | viability, T/C [53] 36.4% | viability, T/C [54] 26.6% | viability, T/C (second compound 10 µM, first compound 10 µM) 16.5%
3860 nM: IC50 [3]

CN(C)C/C=C/C(=O)Nc1cc2c(Nc3ccc(F)c(Cl)c3)ncnc2cc1O[C@H]1CCOC1
> 100 nM: IC50 (curve of compound)
inactive: viability, T/C (compound 0.000316 µM) 96% [middle of 5 runs] | viability, T/C (compound 0.001 µM) 94.8% [middle of 5 runs] | viability, T/C (compound 0.00316 µM) 89.1% [middle of 5 runs] | viability, T/C (compound 0.01 µM) 84.3% [middle of 5 runs] | viability, T/C (compound 0.0316 µM) 74.8% [middle of 5 runs] | viability, T/C (compound 0.1 µM) 71.7% [middle of 5 runs]

CN(C)C/C=C/C(=O)Nc1cc2c(Nc3ccc(F)c(Cl)c3)ncnc2cc1O[C@H]1CCOC1 + CNCc1ccccc1-c1csc(C(C)Nc2nc(C)nc3cc(OC)c(OC)cc23)c1
active: viability, T/C [30] 0.18% | viability, T/C [31] 0.2% | viability, T/C [32] 0.17% | viability, T/C [33] 0.26% | viability, T/C [34] 0.33% | viability, T/C [35] 0.24%
> 100 nM: IC50 [1] | IC50 [2] | IC50 [3]
< 0.316 nM: IC50 [5]
inactive: viability, T/C [6] 99.3% | viability, T/C [7] 91.9% | viability, T/C [8] 80.3% | viability, T/C [9] 74.4% | viability, T/C [10] 83.4% | viability, T/C [11] 54.7% | viability, T/C [12] 81.7% | viability, T/C [13] 78.1% | viability, T/C [14] 81.3% | viability, T/C [15] 69% | viability, T/C [16] 67.2% | viability, T/C [17] 51% | viability, T/C [18] 83.2% | viability, T/C [19] 83% | viability, T/C [20] 60.4% | viability, T/C [21] 64.9% | viability, T/C [22] 60.5% | viability, T/C [23] 62.1% | viability, T/C [24] 93.9% | viability, T/C [25] 97.6% | viability, T/C [26] 33.2% | viability, T/C [27] 0.82% | viability, T/C [28] 68.7% | viability, T/C [29] 34.4%
2.36 nM: IC50 [4]

COC(=O)c1ccc2c(C(=Nc3ccc(N(C)C(=O)CN4CCN(C)CC4)cc3)c3ccccc3)c(O)[nH]c2c1
inactive: viability, T/C (compound 0.0316 µM) 96.2% [middle of 5 runs] | viability, T/C (compound 0.1 µM) 90.5% [middle of 5 runs] | viability, T/C (compound 0.316 µM) 95% [middle of 5 runs] | viability, T/C (compound 1 µM) 92.3% [middle of 5 runs] | viability, T/C (compound 3.16 µM) 85.9% [middle of 5 runs]
